Target: T1, KCNJ5^WT (Homo sapiens, UniProt P48544)
T1 construct: expressed in transfected cells
T1 sequence (P48544 1-419): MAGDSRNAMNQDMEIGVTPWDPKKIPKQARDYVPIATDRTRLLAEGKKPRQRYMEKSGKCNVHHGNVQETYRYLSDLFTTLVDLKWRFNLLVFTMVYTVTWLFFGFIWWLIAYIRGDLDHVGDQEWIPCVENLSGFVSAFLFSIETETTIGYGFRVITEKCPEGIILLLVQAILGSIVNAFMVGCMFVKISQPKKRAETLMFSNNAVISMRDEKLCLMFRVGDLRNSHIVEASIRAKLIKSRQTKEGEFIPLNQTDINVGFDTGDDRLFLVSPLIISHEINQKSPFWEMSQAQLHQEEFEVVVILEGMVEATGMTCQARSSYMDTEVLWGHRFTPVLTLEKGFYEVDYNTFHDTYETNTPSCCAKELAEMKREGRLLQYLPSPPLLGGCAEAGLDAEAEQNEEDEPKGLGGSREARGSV
Experiment: Membrane potential assay (FLIPR dye) in inducible KCNJ5^WT HEK293 cells
Format: cell-based
Conditions: tested as in FIG. 7 (FIGS. 9 and 10)

N-demethyl-N-isobutyl-8,9-anhydroerythromycin A 6,9-hemiacetal [PLUX37]
inhibition of KCNJ5^WT by synthesized macrolide derivatives: no inhibition
